# Assay results published in patent US20160075653A1, “NEMATICIDAL N-(PHENYLCYCLOALKYL)CARBOXAMIDES AND N-(PHENYLCYCLOALKYL)THIOCARBOXAMIDES” (BAYER CROPSCIENCE AKTIENGESELLSCHAFT, priority 2013, published 2016).
# Test: Measurement of log P values by HPLC on reversed phase columns (methods [a] pH 2.3, [b] pH 2.7, [c] pH 7.8)
# Format: physicochemical
# Settings: HPLC on reversed phase column, method [b], pH 2.7
# Experimental: Measurement of log P-Values:
# Measurement of log P Values was Performed According EEC Directive 79/831 Annex V.A8 by HPLC (High Performance Liquid
# Chromatography) on reversed phase columns with the following methods: ^[a] Measurement was done at pH 2.3 with 0.1% phosphoric acid and acetonitrile as eluent with a linear gradient from 10% acetonitrile to 95% acetonitrile. ^[b] measurement of LC-MS was done at pH 2.7 with 0.1% formic acid in water and with acetonitrile (contains 0.1% formic acid) as eluent with a linear gradient from 10% acetonitrile to 95% acetonitrile. ^[c] Measurement with LC-MS was done at pH 7.8 with 0.001 molar ammonium hydrogen carbonate solution in water as eluent with a linear gradient from 10% acetonitrile to 95% acetonitrile.
# Calibration was done with linear alkan-2-ones (with 3 to 16 carbon atoms) with known log P-values (measurement of log P values using retention times with linear interpolation between successive alkanones). Lambda-max-values were determined using UV-spectra from 200 nm to 400 nm and the peak values of the chromatographic signals.
row,logP,SMILES
1,3.13^[b],O=C(N[C@@H]1CC[C@H]1c1ccccc1C(F)(F)F)c1ccccc1[N+](=O)[O-] (relative stereo) [Example 637]
2,3.17^[b],O=C(NC1CCC1c1ccccc1C(F)(F)F)c1ncccc1Br (centres unmarked) [Example 605]
3,2.72^[b],N#Cc1ccccc1C(=O)N[C@@H]1C[C@@H]1c1ccc(Cl)cc1Cl (relative stereo) [Example 650]
4,4.02^[b],O=C(N[C@@H]1CC[C@@H]1c1ccc(Br)cc1C(F)(F)F)c1ccccc1C(F)(F)F (relative stereo) [Example 656]
5,3.99^[b],O=C(N[C@@H]1CC[C@H]1c1ccccc1C(F)(F)F)c1sccc1I (relative stereo) [Example 635]
6,4.33^[b],O=C(N[C@@H]1CC[C@@H]1c1ccc(Cl)cc1C(F)(F)F)c1ncc(C(F)(F)F)cc1Cl (relative stereo) [Example 667]
7,3.87^[b],O=C(N[C@@H]1CC[C@H]1c1ccc(Cl)cc1C(F)(F)F)c1ccccc1 (relative stereo) [Example 679]
8,3.82^[b],O=C(N[C@@H]1C[C@@H]1c1ccc(Cl)cc1Cl)c1ccc(Cl)cc1Cl (relative stereo) [Example 613]
9,3.16^[b],O=C(N[C@@H]1CC[C@H]1c1ccc(Cl)cc1Cl)c1cccnc1Cl (relative stereo) [Example 674]
10,3.18^[b],O=C(N[C@@H]1CC[C@H]1c1cccc(F)c1C(F)(F)F)c1ccccc1[N+](=O)[O-] (relative stereo) [Example 629]

# Same assay, conditions: HPLC on reversed phase column, method [c], pH 7.8
row,logP,SMILES
1,3.10^[c];,O=C(NC1CCC1c1ccccc1C(F)(F)F)c1ncccc1Br (centres unmarked) [Example 605]
2,2.70^[c];,N#Cc1ccccc1C(=O)N[C@@H]1C[C@@H]1c1ccc(Cl)cc1Cl (relative stereo) [Example 650]
3,3.94^[c];,O=C(N[C@@H]1CC[C@@H]1c1ccc(Br)cc1C(F)(F)F)c1ccccc1C(F)(F)F (relative stereo) [Example 656]
4,3.76^[c];,O=C(N[C@@H]1C[C@@H]1c1ccc(Cl)cc1Cl)c1ccc(Cl)cc1Cl (relative stereo) [Example 613]

# Same assay, conditions: HPLC on reversed phase columns, method [b], pH 2.7
row,logP,SMILES
1,1.67^[b],Cc1ncccc1C(=O)N[C@@H]1CCC[C@@H]1c1ccc(F)c(F)c1 (relative stereo) [Example 62]
2,3.03^[b],O=C(NC1CC1(F)c1ccc(Cl)cc1)c1ccccc1C(F)(F)F (centres unmarked) [Example 755]
3,2.75^[b],Cn1cc(C(=O)N[C@@H]2CCC[C@@H]2c2ccc(F)c(F)c2)c(I)n1 (relative stereo) [Example 99]
4,3.01^[b],Cc1nn(C)c(F)c1C(=O)NC1CC1c1ccc(F)cc1 (centres unmarked) [Example 18]
5,2.21^[b],Cc1ncncc1C(=O)N[C@@H]1CCC[C@H]1c1ccc(F)c(F)c1 (relative stereo) [Example 104]
6,3.39^[b],COc1ccccc1C(=O)N[C@@H]1CCC[C@@H]1c1ccc(F)c(F)c1 (relative stereo) [Example 75]
7,3.79^[b],O=C(N[C@@H]1CCC[C@@H]1c1ccc(F)c(F)c1)c1sccc1I (relative stereo) [Example 101]
8,3.24^[b],O=C(N[C@@H]1CC[C@@H]1c1ccc(Cl)cc1C(F)(F)F)c1nccnc1Cl (relative stereo) [Example 717]
9,3.19^[b],O=C(N[C@@H]1CCC[C@@H]1c1ccc(F)c(F)c1)C1=C(C(F)(F)F)OCCS1 (relative stereo) [Example 57]
10,2.76^[b],O=C(N[C@@H]1CCC[C@@H]1c1ccc(F)c(F)c1)c1cccnc1F (relative stereo) [Example 68]
11,3.75^[b],Cc1nc(C(F)(F)F)c(C(=O)NC2CCC2c2ccc(Cl)cc2C(F)(F)F)s1 (centres unmarked) [Example 731]
12,3.76^[b],O=C(N[C@@H]1CCC[C@@H]1c1ccc(F)c(F)c1)c1ccccc1OC(F)(F)F (relative stereo) [Example 95]
13,2.86^[b],Cc1nnsc1C(=O)N[C@@H]1CCC[C@@H]1c1ccc(F)c(F)c1 (relative stereo) [Example 72]
14,3.31^[b],Cc1cccnc1C(=O)N[C@@H]1CCC[C@@H]1c1ccc(F)c(F)c1 (relative stereo) [Example 64]
15,2.82^[b],Nc1nc(C(F)(F)F)c(C(=O)N[C@@H]2CCC[C@@H]2c2ccc(F)c(F)c2)s1 (relative stereo) [Example 97]
16,3.35^[b],O=C(N[C@@H]1CCC[C@H]1c1ccc(F)c(F)c1)c1ccccc1F (relative stereo) [Example 105]
17,2.69^[b],Cc1nocc1C(=O)N[C@@H]1CCC[C@@H]1c1ccc(F)c(F)c1 (relative stereo) [Example 61]

# Same assay, conditions: HPLC reversed phase, method [b] (pH 2.7)
row,logP,SMILES
1,2.81^[b],O=C(NC1CCCC1c1ccc(Cl)cc1)c1cccnc1Cl (centres unmarked) [Example 281]
2,3.68^[b],O=C(NC1CCCCC1c1ccccc1C(F)(F)F)c1cccnc1C(F)(F)F (centres unmarked) [Example 375]
3,4.09^[b],O=C(N[C@@H]1CC[C@H]1c1ccc(Cl)cc1Cl)c1ccccc1I (relative stereo) [Example 264]
4,2.73^[b],Cc1nc(C)c(C(=O)NC2CCCC2c2ccccc2Cl)s1 (centres unmarked) [Example 291]
5,3.18^[b],Cc1nc(C(F)(F)F)c(C(=O)N[C@@H]2CCC[C@@H]2c2ccccc2F)s1 (relative stereo) [Example 343]
6,2.31^[b],Cc1nn(C)cc1C(=O)NC1CCCC1c1ccc(Cl)cc1 (centres unmarked) [Example 277]
7,3.08^[b],O=C(NC1CC1c1ccc(Cl)cc1)c1c(F)cccc1C(F)(F)F (centres unmarked) [Example 270]
8,3.73^[b],O=C(NC1CCCC1c1ccc(Cl)cc1Cl)c1c(F)cccc1F (centres unmarked) [Example 350]
9,4.26^[b],O=C(N[C@@H]1CC[C@@H]1c1c(F)cccc1C(F)(F)F)c1cccc(Cl)c1 (relative stereo) [Example 552]
10,3.24^[b],Cc1nc(C)c(C(=O)NC2CCCCC2c2ccccc2Cl)s1 (centres unmarked) [Example 376]
11,4.23^[b],O=C(NC1CCC1c1ccc(F)cc1C(F)(F)F)c1ncc(C(F)(F)F)cc1Cl (centres unmarked) [Example 480]
12,3.70^[b],O=C(NC1CCC1c1ccccc1Cl)c1ccc(Cl)cc1 (centres unmarked) [Example 446]
13,3.26^[b],O=C(NC1CCCCC1c1c(F)cccc1F)c1cccnc1C(F)(F)F (centres unmarked) [Example 398]
14,3.12^[b],O=C(NC1CC1c1ccc(Cl)cc1)c1ccccc1F (centres unmarked) [Example 422]
15,2.47^[b],Cc1nn(C)cc1C(=O)NC1CCCC1c1ccccc1C(F)(F)F (centres unmarked) [Example 310]
16,2.41^[b],CC(C)Oc1ccc([C@H]2CCC[C@H]2NC(=O)c2ccccn2)cc1 (relative stereo) [Example 334]
17,3.16^[b],O=C(NC1CCCCC1c1ccccc1Cl)c1cccnc1Cl (centres unmarked) [Example 380]
18,2.75^[b],Cn1cc(C(=O)N[C@@H]2CC[C@@H]2c2ccccc2C(F)(F)F)c(C(F)F)n1 (relative stereo) [Example 263]
19,3.33^[b],O=C(NC1CCCCC1c1ccccc1C(F)(F)F)c1cccnc1Cl (centres unmarked) [Example 387]
20,3.14^[b],O=C(NC1CCC1c1ccccc1Cl)c1ccccc1 (centres unmarked) [Example 447]
21,3.00^[b],O=C(N[C@@H]1CCC[C@@H]1c1ccccc1F)c1nccnc1C(F)(F)F (relative stereo) [Example 341]

row,SMILES,logP
1,O=C(NC1CC1c1ccc(Cl)cc1)c1cccnc1Cl (centres unmarked) [Compound 274],2.14^[b]
2,O=C(N[C@@H]1C[C@@H]1c1ccc(Cl)cc1Cl)c1sccc1I (relative stereo) [Compound 582],3.78^[b]

# Same assay, conditions: HPLC reversed phase, method [c] pH 7.8
row,logP,SMILES
1,3.07^[c];,Cc1nc(C(F)(F)F)c(C(=O)N[C@@H]2CCC[C@@H]2c2ccccc2F)s1 (relative stereo) [Example 343]
2,3.03^[c];,O=C(NC1CC1c1ccc(Cl)cc1)c1c(F)cccc1C(F)(F)F (centres unmarked) [Example 270]
3,3.07^[c];,O=C(NC1CC1c1ccc(Cl)cc1)c1ccccc1F (centres unmarked) [Example 422]
4,2.46^[c];,CC(C)Oc1ccc([C@H]2CCC[C@H]2NC(=O)c2ccccn2)cc1 (relative stereo) [Example 334]
5,2.94^[c];,O=C(N[C@@H]1CCC[C@@H]1c1ccccc1F)c1nccnc1C(F)(F)F (relative stereo) [Example 341]

row,SMILES,logP
1,O=C(NC1CC1c1ccc(Cl)cc1)c1cccnc1Cl (centres unmarked) [Compound 274],2.10^[c];

# Same assay, conditions: method [b], HPLC reversed phase, pH 2.7
row,logP,SMILES
1,4.49^[b],Cn1nc(C(F)F)c(C(=O)N(C2CC2)C2CCCCC2c2ccccc2Cl)c1F (centres unmarked) [Example 169]
2,3.66^[b],O=C(NC1CC1c1ccc(Cl)cc1Cl)c1ccccc1F (centres unmarked) [Example 205]
3,3.96^[b],Cn1cc(C(=O)N(C2CC2)C2CCCCC2c2ccccc2)c(C(F)(F)F)n1 (centres unmarked) [Example 142]
4,4.59^[b],Cn1cc(C(=O)N(C2CC2)C2CCCCC2c2ccc(Cl)cc2Cl)c(C(F)F)n1 (centres unmarked) [Example 157]
5,2.18^[b],Cn1cc(C(=O)N[C@@H]2CCC[C@H]2c2ccc(F)c(F)c2)c(=O)[nH]1 (relative stereo) [Example 135]
6,4.65^[b],CCc1nn(C)c(F)c1C(=O)N(C1CC1)C1CCCC1c1ccc(Cl)cc1Cl (centres unmarked) [Example 160]
7,4.69^[b],Cc1nc(C(F)(F)F)c(C(=O)N(C2CC2)C2CCCCC2c2ccccc2)s1 (centres unmarked) [Example 147]
8,2.76^[b],Cn1cc(C(=O)NC2CCCCC2c2ccccc2)c(C(F)F)n1 (centres unmarked) [Example 185]
9,3.69^[b],FC(F)(F)c1ccccc1C(=S)NC1CC1c1ccccc1 (centres unmarked) [Example 148]
10,4.85^[b],Cc1nc(C(F)F)c(C(=O)N(C2CC2)C2CCCC2c2ccc(Cl)cc2Cl)s1 (centres unmarked) [Example 173]

row,SMILES,logP
1,O=C(NC1CC1c1ccc(Cl)cc1Cl)c1cccnc1Cl (centres unmarked) [Example 211],2.82^[b]

# Same assay, conditions: method [c], HPLC reversed phase, pH 7.8
row,SMILES,logP
1,O=C(NC1CC1c1ccc(Cl)cc1Cl)c1ccccc1F (centres unmarked) [Example 205],3.55^[c];
2,O=C(NC1CC1c1ccc(Cl)cc1Cl)c1cccnc1Cl (centres unmarked) [Example 211],2.77^[c];

# Same assay, conditions: reversed phase HPLC columns, HPLC-MS, method letter not given; read-out: log P
row,chromatographic logP,SMILES
1,3.3,"O=C(N[C@H]1CCC1c1ccccc1C(F)(F)F)c1ccccc1Cl (stereo in doubt) [Preparation Example 4, cis-2-chloro-N-{2-[2-(trifluoromethyl)phenyl]cyclobutyl}benzamide]"

# Same assay, conditions: reversed phase HPLC columns, pH 2.7, HPLC on reversed phase columns, method [b] (pH 2.7); read-out: logP
row,chromatographic logP,SMILES
1,3.72,O=C(N[C@@H]1CC[C@@H]1c1c(Cl)cccc1Cl)c1ccccc1I [Example 737]
2,4.21,O=C(N[C@@H]1CC[C@@H]1c1c(Cl)cccc1Cl)c1sccc1I [Example 745]
3,3.71,O=C(N[C@@H]1CC[C@@H]1c1c(Cl)cccc1Cl)c1ccccc1C(F)(F)F [Example 736]
